A word on the EC50: it is the concentration giving half of the maximal effect. The IC50 is the midpoint of a concentration-inhibition curve. Higher therefore signals a need for much substance.

This is an account of results in patent publication US20120225061A1, “TETRASUBSTITUTED CYCLOHEXYL COMPOUNDS AS KINASE INHIBITORS” (priority 2011, published 2012).

The subject of experiment [1] is KMS11 (human myeloma cell line). Kind of experiment: Cell proliferation assay (CellTiter-Glo) in KMS11 cells. The following applies: KMS-11, 72 h, Table 4, 3 days, read-out: KMS11-luc EC50. Type of experiment: cell-based. In short, it runs like this: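 KMS11 cells at 2000 per well in IMDM/10% FBS were exposed to compound for 3 days. Viability was read by CellTiter-Glo luminescence.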
On the technique in general: Cellular ATP, detected with luciferase, serves as a proxy for viable cell number.

Experiment [2] deals with Pim1 kinase (Homo sapiens, UniProt P11309). Kind of experiment: KinaseGlo Pim1 ATP depletion assay. The following applies: Table 4, 2.5 nM PIM1, 20 μM ATP, 40 μM BAD peptide. The format is biochemical. As for the experimental part: The activity of PIM1 is measured using a luciferase-luciferin based ATP detection reagent to quantify ATP depletion resulting from kinase-catalyzed phosphoryl transfer to a peptide substrate. Compounds to be tested are dissolved in 100% DMSO and directly distributed into white 384-well plates at 0.5 μl per well. […] After 15 minutes, 10 μl of 40 μM ATP in assay buffer is added. […] The reaction is performed until approximately 50% of the ATP is depleted, then stopped with the addition of 20 μl KinaseGlo Plus (Promega Corporation) solution. The stopped reaction is incubated for 10 minutes and the remaining ATP detected via luminescence on the Victor2 (Perkin Elmer).
Sequence of Pim1 kinase (P11309 whole entry): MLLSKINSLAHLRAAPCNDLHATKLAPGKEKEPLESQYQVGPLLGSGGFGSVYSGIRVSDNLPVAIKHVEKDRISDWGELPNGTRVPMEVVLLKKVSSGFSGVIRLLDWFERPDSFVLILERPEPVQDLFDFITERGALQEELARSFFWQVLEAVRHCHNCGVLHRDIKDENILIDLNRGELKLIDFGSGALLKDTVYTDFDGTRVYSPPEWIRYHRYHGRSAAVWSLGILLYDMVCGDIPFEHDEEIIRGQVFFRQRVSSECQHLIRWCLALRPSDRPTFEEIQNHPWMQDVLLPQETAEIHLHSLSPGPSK

For experiment [3], the target named is Pim3 kinase (Homo sapiens, UniProt Q86V86). Briefly: KinaseGlo Pim3 ATP depletion assay. Type of experiment: biochemical. The following applies: Table 4, 40 μM ATP, 100 μM BAD peptide. On the procedure: (§1) The activity of PIM3 is measured using a luciferase-luciferin based ATP detection reagent to quantify ATP depletion resulting from kinase-catalyzed phosphoryl transfer to a peptide substrate. Compounds to be tested are dissolved in 100% DMSO and directly distributed into white 384-well plates at 0.5 μl per well. […] After 15 minutes, 10 μl of 80 μM ATP in assay buffer is added. Final assay concentrations are 5 nM PIM1, 40 μM ATP, 100 μM BAD peptide and 2.5% DMSO. The reaction is performed until approximately 50% of the ATP is depleted, then stopped by the addition of 20 μl KinaseGlo Plus (Promega Corporation) solution. The stopped reaction is incubated for 10 minutes and the remaining ATP detected via luminescence on the Victor2 (Perkin Elmer).
In general terms: Kinase-Glo measures the ATP left after a reaction by luminescence.

Experiment [4] addresses Pim2 kinase (Homo sapiens, UniProt Q9P1W9). Briefly: KinaseGlo Pim2 ATP depletion assay. Type of experiment: biochemical. The settings on record: Table 4, 5 nM PIM2, 4 μM ATP, 10 μM BAD peptide. On the procedure:
as §1, with “of PIM2” for “of PIM3”, “of 8” for “of 80”, “nM PIM2, 4” for “nM PIM1, 40”, “ATP, 10” for “ATP, 100”, “stopped with” for “stopped by”

Sequence of Pim2 kinase (Q9P1W9 whole entry): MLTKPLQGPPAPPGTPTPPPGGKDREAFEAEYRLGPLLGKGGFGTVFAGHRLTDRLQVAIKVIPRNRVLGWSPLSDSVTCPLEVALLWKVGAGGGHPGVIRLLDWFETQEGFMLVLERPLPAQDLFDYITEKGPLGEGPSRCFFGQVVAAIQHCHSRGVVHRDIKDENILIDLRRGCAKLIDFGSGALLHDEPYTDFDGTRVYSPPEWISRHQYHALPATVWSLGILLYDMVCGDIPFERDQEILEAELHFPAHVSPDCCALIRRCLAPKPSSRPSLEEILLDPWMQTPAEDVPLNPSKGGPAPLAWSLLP

`C[C@@H]1C[C@H](c2ccncc2NC(=O)c2ccnc(-c3c(F)cccc3F)n2)C[C@H](O)[C@]1(O)CO` [Example 40, 2-(2,6-difluorophenyl)-N-(4-((1S,3S,4R,5R)-3,4-dihydroxy-4-(hydroxymethyl)-5-methylcyclohexyl)pyridin-3-yl) pyrimidine-4-carboxamide]: the EC50 in experiment [1] was at least 10 µM. Also, the IC50 in experiment [2] is 0.209 µM; in experiment [3], 0.385 µM; in experiment [4], 2.88 µM.
As to `CC[C@]1(O)[C@H](C)C[C@H](c2ccncc2NC(=O)c2ccc(F)c(-c3c(F)cccc3F)n2)C[C@@H]1O` [Example 42, 6-(2,6-difluorophenyl)-N-(4-((1S,3S,4S,5R)-4-ethyl-3,4-dihydroxy-5-methylcyclohexyl)pyridin-3-yl)-5-fluoropicolinamide], the EC50 in experiment [1] was at least 10 µM. The IC50 in experiment [2] was 0.0446 µM; in experiment [3], 0.434 µM; in experiment [4], 0.846 µM.
For `CC(=O)OC[C@]1(O)[C@H](O)C[C@H](c2ccncc2NC(=O)c2ccc(F)c(-c3c(F)cccc3F)n2)C[C@@H]1C` [Example 43, ((1S,2R,4R,6S)-4-(3-(6-(2,6-difluorophenyl)-5-fluoropicolinamido)pyridin-4-yl)-1,2-dihydroxy-6-methylcyclohexyl) methylacetate], the EC50 in experiment [1] stood at 1.54 µM. The IC50 in experiment [2] worked out at 0.0004 µM; in experiment [3] it was 0.002 µM; in experiment [4] it was 0.002 µM.
As to `CC(=O)OC[C@]1(O)[C@H](C)C[C@H](c2ccncc2NC(=O)c2ccc(F)c(-c3c(F)cccc3F)n2)C[C@@H]1O` [Example 44, ((1R,2S,4S,6R)-4-(3-(6-(2,6-difluorophenyl)-5-fluoropicolinamido)pyridin-4-yl)-1,2-dihydroxy-6-methylcyclohexyl) methylacetate], in experiment [1], the EC50 is at least 10 µM. The concentration for half-maximal inhibition (IC50) came out at 0.0086 µM in experiment [2], 0.0293 µM in experiment [3] and 0.0442 µM in experiment [4].
Turning to `C[C@H]1C[C@@H](c2ccncc2NC(=O)c2ccc(F)c(-c3c(F)ccc(C#N)c3F)n2)C[C@@H](O)[C@]1(C)O` [Example 46, 6-(3-cyano-2,6-difluorophenyl)-N-(4-((1R,3R,4R,5S)-3,4-dihydroxy-4,5-dimethylcyclohexyl)pyridin-3-yl)-5-fluoropicolinamide], in experiment [1], the EC50 was at least 10 µM. In addition, the IC50 amounted to 0.0014 µM in experiment [2], 0.0035 µM in experiment [3] and 0.0109 µM in experiment [4].
On to `C[C@H]1C[C@@H](c2ccncc2NC(=O)c2nc(-c3c(F)cccc3F)c(F)cc2N)C[C@@H](O)[C@]1(C)O` [Example 48, 3-amino-6-(2,6-difluorophenyl)-N-(4-((1R,3R,4R,5S)-3,4-dihydroxy-4,5-dimethylcyclohexyl)pyridin-3-yl)-5-fluoropicolinamide], for which, in experiment [1], the EC50 turned out to be 0.87 µM. In addition, the values for the half-inhibitory concentration (IC50) in experiment [2], in experiment [3] and in experiment [4] were 0.0004 µM, 0.0014 µM and 0.0013 µM, respectively.
As for `COc1cc(F)c(-c2cccc(C(=O)Nc3cnccc3[C@H]3C[C@@H](O)[C@](C)(O)[C@@H](C)C3)n2)c(F)c1` [Example 50, 6-(2,6-difluoro-4-methoxyphenyl)-N-(4-((1R,3R,4R,5S)-3,4-dihydroxy-4,5-dimethylcyclohexyl)pyridin-3-yl) picolinamide], the EC50 in experiment [1] was 4.78 µM. Besides, the IC50 in experiment [2] turned out to be 0.0006 µM; in experiment [3], 0.0015 µM; in experiment [4], 0.0035 µM.
The corresponding values for `C[C@H]1C[C@@H](c2ccncc2NC(=O)c2nc(-c3nccs3)ccc2N)C[C@@H](O)[C@]1(C)O` [Example 52, 3-amino-N-(4-((1R,3R,4R,5S)-3,4-dihydroxy-4,5-dimethylcyclohexyl)pyridin-3-yl)-6-(thiazol-2-yl) picolinamide] are 9.74 µM, 0.002 µM, 0.0036 µM and 0.0135 µM.
As to `C[C@H]1C[C@@H](c2ccncc2NC(=O)c2ccc(F)c(-c3ccc(C#N)cc3F)n2)C[C@@H](O)[C@]1(C)O` [Example 54, 6-(4-cyano-2-fluorophenyl)-N-(4-((1R,3R,4R,5S)-3,4-dihydroxy-4,5-dimethylcyclohexyl)pyridin-3-yl)-5-fluoropicolinamide], in experiment [1], the EC50 was at least 10 µM. For the same compound, the IC50 in experiment [2] was 0.0033 µM; in experiment [3] it was 0.0121 µM; in experiment [4], 0.0679 µM.
In the case of `C[C@@H]1C[C@H](c2ccncc2NC(=O)c2ccc(F)c(-c3c(F)ccc(N)c3F)n2)C[C@H](O)[C@@]1(C)O` [Example 55, 6-(3-amino-2,6-difluorophenyl)-N-(4-((1S,3S,4S,5R)-3,4-dihydroxy-4,5-dimethylcyclohexyl)pyridin-3-yl)-5-fluoropicolinamide], in experiment [1], the EC50 was at least 10 µM. For the same compound, the IC50 in experiment [2] amounted to 0.0127 µM; in experiment [3] it was 0.22 µM; in experiment [4], 0.74 µM.
For `C[C@H]1C[C@@H](c2ccncc2NC(=O)c2ccc(F)c(-c3c(F)ccc(N)c3F)n2)C[C@@H](O)[C@]1(C)O` [Example 56, 6-(3-amino-2,6-difluorophenyl)-N-(4-((1R,3R,4R,5S)-3,4-dihydroxy-4,5-dimethylcyclohexyl)pyridin-3-yl)-5-fluoropicolinamide] the same measures were 7.96 µM, 0.0004 µM, 0.0029 µM and 0.0053 µM.
For `C[C@@H]1C[C@H](c2ccncc2NC(=O)c2cccc(-c3c(F)cccc3F)n2)C[C@H](O)[C@@]1(C)O` [Example 57, 6-(2,6-difluorophenyl)-N-(4-((1S,3S,4S,5R)-3,4-dihydroxy-4,5-dimethylcyclohexyl)pyridin-3-yl) picolinamide] the same measures were 6.62 µM, 0.0151 µM, 0.102 µM and 0.227 µM.
Regarding `C[C@H]1C[C@@H](c2ccncc2NC(=O)c2cccc(-c3c(F)cccc3F)n2)C[C@@H](O)[C@]1(C)O` [Example 58, 6-(2,6-difluorophenyl)-N-(4-((1R,3R,4R,5S)-3,4-dihydroxy-4,5-dimethylcyclohexyl)pyridin-3-yl) picolinamide], the EC50 in experiment [1] turned out to be 6.06 µM. Further, the IC50 was determined as 0.0004 µM in experiment [2], 0.0026 µM in experiment [3] and 0.0034 µM in experiment [4].
With `C[C@@H]1C[C@H](c2ccncc2NC(=O)c2ccc(F)c(-c3c(F)cccc3F)n2)C[C@H](O)[C@]1(O)CO` [Example 60, 6-(2,6-difluorophenyl)-N-(4-((1S,3S,4R,5R)-3,4-dihydroxy-4-(hydroxymethyl)-5-methylcyclohexyl)pyridin-3-yl)-5-fluoropicolinamide], the EC50 in experiment [1] was at least 10 µM. For the same compound, the figures for the IC50 in experiment [2], in experiment [3] and in experiment [4] were 0.0193 µM, 0.329 µM and 1.71 µM, respectively.
Consider `C[C@H]1C[C@@H](c2ccncc2NC(=O)c2nc(-c3nc(Cl)ccc3F)ccc2N)C[C@@H](O)[C@]1(C)O` [Example 136, 5-amino-6′-chloro-N-(4-((1R,3R,4R,5S)-3,4-dihydroxy-4,5-dimethylcyclohexyl)pyridin-3-yl)-3′-fluoro-2,2′-bipyridine-6-carboxamide], for which the EC50 in experiment [1] is 5.75 µM. Further, the IC50 in experiment [2] was found to be 0.001 µM; in experiment [3], 0.0019 µM; in experiment [4], 0.0046 µM.
Regarding `COC(=O)c1ccc(F)c(-c2ccc(N)c(C(=O)Nc3cnccc3[C@H]3C[C@@H](O)[C@](C)(O)[C@@H](C)C3)n2)n1` [Example 137, methyl 5′-amino-6′-(4-((1R,3R,4R,5S)-3,4-dihydroxy-4,5-dimethylcyclohexyl)pyridin-3-ylcarbamoyl)-3-fluoro-2,2′-bipyridine-6-carboxylate], the half-maximal effective concentration (EC50) in experiment [1] was 8.58 µM. The IC50 in experiment [2] is 0.0015 µM; in experiment [3], 0.0023 µM; in experiment [4], 0.0054 µM.
The corresponding values for `Cc1ccc(F)c(-c2ccc(N)c(C(=O)Nc3cnccc3[C@H]3C[C@@H](O)[C@](C)(O)[C@@H](C)C3)n2)n1` [Example 138, 5-amino-N-(4-((1R,3R,4R,5S)-3,4-dihydroxy-4,5-dimethylcyclohexyl)pyridin-3-yl)-3′-fluoro-6′-methyl-2,2′-bipyridine-6-carboxamide] are at least 10 µM, 0.0017 µM, 0.0026 µM and 0.0129 µM.
